Test results published in ChEMBL document CHEMBL1857833, “Screening and optimization of specific chemical series against human African Trypanosomiasis (HAT)”.
≈ marks a conversion by molar mass, not a printed value. Where “and” joins values, the source holds several entries; their conditions need not be identical. Equal values may be shown once.

Assays:
[1] = DNDI: Cytotoxicity against L929 mouse fibroblasts, CYTO-SP, 24 hour; assay type: toxicity, cell-based; conditions: mouse, L929 mouse fibroblasts
[2] = test system: Trypanosoma brucei; assay: DNDI: Inhibition of Human African Trypanosomiasis, SBRI 427, in vitro; assay type: functional, organism-based
[3] = Trypanosoma brucei, SBRI 427, read-out: IC50

| Compound | IC50 [2, 3] [µg/mL] | IC50 [2] | IC50 at 24 h [1] [µg/mL] |
| --- | --- | --- | --- |
| CCC(CC)N/C(=N\O)c1cccnc1Oc1ccc(OC)cc1 | 0.78 (≈ 2.37 µM) | – | > 50 |
| C[C@@H]1[C@@H](N/C(=N\O)c2ccccc2-c2ccccc2)C[C@H]2C[C@@H]1C2(C)C | > 5 | – | 17 (≈ 48.8 µM) |
| COc1ccc(-c2noc(C(C)C)n2)cc1 | > 5 | – | > 50 |
| Cc1cc(N)nn1Cc1coc(-c2ccc(OC(F)(F)F)cc2)n1 | 1.18 (≈ 3.49 µM) | – | > 50 |
| CSc1ccccc1Oc1ncccc1/C(N)=N\O | > 5 | – | > 5 |
| Clc1ccc(-c2nc(CNCCCN3CCCC3)co2)c(Cl)c1 | – | 0.62 µg/mL and 1.33 µg/mL | 33.6 (≈ 94.8 µM) |
| C=CCO/N=C/c1ccc(OC)cc1 | > 5 | – | > 50 |
| COc1ccccc1/C(=N/O)N(C(=O)C(C)C)C(=O)C(C)C | > 5 | – | > 50 |
| CCc1ccc(Oc2ncccc2/C(=N/O)NCc2ccccc2)cc1 | 1.08 (≈ 3.11 µM) | – | > 50 |
| CCC(CC)N/C(=N\O)c1cccnc1Oc1c(F)cccc1F | 0.31 (≈ 0.924 µM) | – | > 50 |
| CC1CCCC(NCc2coc(-c3ccccc3Br)n2)C1C (stereo not drawn) | – | 2.06 µg/mL and 0.92 µg/mL | > 50 |
| COc1ccccc1/C(N)=N/O | > 5 | – | > 50 |
| COCC(C)N/C(=N\O)c1cccnc1Oc1ccc(C(C)C)cc1 (stereo not drawn) | 0.92 (≈ 2.68 µM) | – | > 50 |
| CCCNC/C(=N\O)c1ccc(OC)cc1 | > 5 | – | > 50 |
| CC(C)c1ccc(Oc2ncccc2/C(=N/O)NCc2cccs2)cc1 | 0.89 (≈ 2.42 µM) | – | > 50 |
| CN(/C(=N\O)c1cccnc1OCc1ccccc1F)c1ccccc1 | 1.06 (≈ 3.02 µM) | – | > 50 |
| C=CCO/N=C/c1ccccc1-c1ccccc1 | > 5 | – | > 50 |
| CCc1ccc(Oc2ncccc2/C(=N/O)NCc2ccccc2OC)cc1 | 1.08 (≈ 2.86 µM) | – | > 50 |
| COc1ccc(C(=O)N(C)OC)cc1 | > 5 | – | > 50 |
| COc1ccccc1Oc1ncccc1C(=N)N | > 5 | – | > 50 |
| CC(C)(C)CN/C(=N\O)c1cccnc1Oc1ccc(Cl)cc1 | 0.58 (≈ 1.74 µM) | – | > 50 |

| Compound | IC50 [2, 3] [µg/mL] | IC50 [2] | IC50 at 24 h [1] [µg/mL] |
| --- | --- | --- | --- |
| COc1ccc(/C(Cc2ccccc2)=N/O)cc1 | > 5 | – | > 50 |
| Cc1ccc(-c2nc(CNC[C@@H]3CC[C@H]4C[C@@H]3C4(C)C)co2)cc1 | – | 0.93 µg/mL and 2.49 µg/mL | 28.4 (≈ 87.5 µM) |
| COCC(C)N/C(=N\O)c1ccnc(Oc2ccc(F)c(Cl)c2)c1 (stereo not drawn) | 0.82 (≈ 2.32 µM) | – | > 50 |
| N/C(=N/O)c1cccnc1Oc1ccccc1 | > 5 | – | > 50 |
| CCOc1ccccc1CN/C(=N\O)c1cccnc1Oc1ccc(CC)cc1 | 0.76 (≈ 1.94 µM) | – | > 50 |
| COCCN/C(=N\O)c1cccnc1Oc1ccc(C(C)C)cc1 | 1.04 (≈ 3.16 µM) | – | > 50 |
| CCc1ccccc1Oc1ncccc1C#N | > 5 | – | > 50 |
| CN1CCCC1CCNCc1coc(-c2ccc(Br)cc2)n1 (stereo not drawn) | – | 1.22 µg/mL and 0.45 µg/mL | 25.1 (≈ 68.9 µM) |
| CC(C)CO/N=C/c1ccccc1-c1ccccc1 | > 5 | – | > 50 |
| N/C(=N/O)c1cccnc1Oc1ccccc1Br | > 5 | – | > 50 |
| COc1ccc(/C=N/OCc2ccccc2)cc1 | > 5 | – | > 50 |
| COc1ccc(/C=N/OCC(C)C)cc1 | > 5 | – | > 50 |
| Cc1ccccc1CN/C(=N\O)c1cccnc1Oc1c(F)cccc1F | 1.02 (≈ 2.76 µM) | – | > 50 |
| COc1ccccc1Oc1ncccc1C#N | > 5 | – | > 50 |
| CO/N=C/c1ccccc1-c1ccccc1 | > 5 | – | > 50 |
| O/N=C(/c1ccccc1-c1ccccc1)N1CCCCCCC1 | > 5 | – | > 50 |
| CON(C)C(=O)c1ccccc1-c1ccccc1 | > 5 | – | > 50 |
| COc1ccc(C(=N)NO)cc1 | > 5 | – | > 50 |
| O/N=C(\NCc1c(F)cccc1F)c1cccnc1Oc1c(F)cccc1F | 1.15 (≈ 2.94 µM) | – | > 50 |
| CC1CCC(C)N1/C(=N\O)c1ccc(Oc2ccc3ccccc3c2)nc1 (stereo not drawn) | 0.91 (≈ 2.52 µM) | – | > 50 |

More lines, main results first:

| IC50 [2, 3] [µg/mL] | IC50 [2] | Compound | IC50 at 24 h [1] [µg/mL] |
| --- | --- | --- | --- |
| > 5 | – | O=C(NC1CCCCC1)c1cccnc1Oc1ccccc1 | > 50 |
| > 5 | – | O=C(NC1CCCCC1)c1cccnc1Cl | > 50 |
| > 5 | – | COc1ccc(C(=O)NC2CCCCC2)c(OC)c1 | > 50 |
| 0.37 (≈ 1.05 µM) | – | CCC(CC)N/C(=N\O)c1cccnc1Oc1ccc(C)c2c1CCC2 | > 50 |
| 3.92 (≈ 16.6 µM) | – | O/N=C(\NC1CCCCC1)c1ccccc1F | > 50 |
| > 5 | – | O=C(NC1CCCCC1)c1cccnc1Oc1ccccc1Cl | > 50 |
| 1.02 (≈ 2.47 µM) | – | COc1cc(C)ccc1Oc1nc(C)ccc1/C(=N/O)NCc1cc(F)cc(F)c1 | > 50 |
| 0.59 (≈ 1.89 µM) | – | Cc1cc(C)cc(Oc2ccc(/C(=N/O)NC3CCC3)cn2)c1 | > 50 |
| 1.08 (≈ 3.18 µM) | – | Cc1cc(C)cc(Oc2ccc(/C(=N/O)NC3CCCCC3)cn2)c1 | > 50 |
| 1.08 (≈ 3 µM) | – | CCC(CC)N/C(=N\O)c1ccc(C)nc1Oc1ccc(SC)cc1 | > 50 |
| 0.92 (≈ 2.56 µM) | – | O/N=C(\NCC1CCCCC1)c1cccnc1Oc1ccc(Cl)cc1 | > 50 |
| > 5 | – | O/N=C(/NC1CCCCC1)c1ccc2ccccc2c1 | 21.1 (≈ 78.7 µM) |
| > 5 | – | COc1ccc(C(=O)NC2CCCCC2)cc1 | > 50 |
| 0.44 (≈ 1.38 µM) | – | CCC(CC)N/C(=N\O)c1cccnc1OCC1CCCCC1 | 33.5 (≈ 105 µM) |
| > 5 | – | O/N=C(\NC1CCCCC1)c1ccccc1Br | > 50 |
| 3.28 (≈ 11 µM) | – | O/N=C(\NC1CCCCC1)c1cccc(Br)c1 | 39 (≈ 131 µM) |
| 0.99 (≈ 2.74 µM) | – | CC1CCC(N/C(=N\O)c2cccnc2Oc2c(F)cccc2F)CC1 (stereo not drawn) | > 50 |
| 3.41 (≈ 13 µM) | – | COc1ccc(/C(=N/O)NCC2CCCCC2)cc1 | > 50 |
| > 5 | – | COc1ccccc1Oc1ncccc1C(=N)NC1CCCCC1 | > 50 |
| 0.15 (≈ 0.458 µM) | – | COc1ccc(Oc2ncccc2/C(=N/O)NC2CCCC2)cc1 | > 50 |
| – | 0.78 µg/mL and 0.28 µg/mL | Cc1ccc(Oc2nc(C)ccc2/C(=N/O)NC2CCCCC2)c(C)c1 | 34 (≈ 96.2 µM) |
| 2.6 (≈ 8.83 µM) | – | O/N=C(\NC1CCCCC1)c1cccc(-c2ccccc2)c1 | 35 (≈ 119 µM) |
| 1.06 (≈ 2.82 µM) | – | Cc1ccccc1CN/C(=N\O)c1cccnc1Oc1ccc(C(C)C)cc1 | 44.9 (≈ 120 µM) |
| 1.12 (≈ 2.88 µM) | – | CC1CC(N/C(=N\O)c2cccnc2Oc2c(F)cccc2F)CC(C)(C)C1 (stereo not drawn) | 31.5 (≈ 80.9 µM) |
| > 5 | – | COc1cc(C)ccc1Oc1ncccc1/C(N)=N/O | > 5 |
| 1.02 (≈ 3.28 µM) | – | Cc1cc(C)cc(Oc2ccc(/C(=N/O)NCC3CC3)cn2)c1 | > 50 |
| 1.08 (≈ 2.95 µM) | – | O/N=C(\NC1CCCC1)c1ccc(Oc2cc(Cl)ccc2Cl)nc1 | 28.8 (≈ 78.6 µM) |
| > 5 | – | Fc1ccccc1Oc1ncccc1CNC1CCCCC1 | > 50 |
